Reference: patent US6900231B2, “Aminopyridyl-substituted phenyl acetamides as protease inhibitors” (3-Dimensional Pharmaceuticals, Inc., priority 2000, dated 2005)
Where a name gives a salt, the structure may show the parent alone.

Target: T1, human α-thrombin (Homo sapiens, UniProt P00734)
T1 construct: Human α-thrombin, human factor Xa and human plasmin were obtained from Enzyme Research Laboratories; purchased Enzyme Research Laboratories (South Bend, Ind.)
Assay: In vitro inhibition of purified enzymes: Ki determination, hydrolysis of peptide p-nitroanilide substrate by thrombin
Format: biochemical
Text: Reagents: All buffer salts were obtained from Sigma Chemical Company (St. Louis, Mo.), and were of the highest purity available.
Human α-thrombin, human factor Xa and human plasmin were obtained from Enzyme Research Laboratories (South Bend, Ind.). Bovine α-chymotrypsin (Sigma C4129), bovine trypsin (Sigma T8642) and human kidney cell urokinase (Sigma U5004) were obtained from Sigma. Human leukocyte elastase was obtained from Elastin Products (Pacific, Mo.).
Ki Determinations: All assays are based on the ability of the test compound to inhibit the enzyme catalyzed hydrolysis of a peptide p-nitroanilide substrate. […] The final concentrations for each of the substrates is listed below. In general, substrate concentrations are lower than the experimentally determined value for Km. Test compounds are prepared as a 1.0 mg/ml solution in DMSO. […]
Data corresponding to less than 10% of the total substrate hydrolysis were used in the calculations. The ratio of the velocity (rate of change in absorbance as a function of time) for a sample containing no test compound is divided by the velocity of a sample containing test compound, and is plotted as a function of test compound concentration. The data are fit to a linear regression, and the value of the slope of the line calculated. The inverse of the slope is the experimentally determined Ki value. […]

Ki: 2.8 nM
Compound: Cc1nc(N)ccc1CNC(=O)Cc1c(Cl)ccc(NCC(F)(F)c2ccc(F)c3ccccc23)c1F [Example 5, N-[(6-Amino-2-methyl(3-pyridyl))methyl]-2-(3-{[2,2-difluoro-2-(4-fluoronaphthyl)ethyl]amino}-6-chloro-2-fluorophenyl)acetamide Hydrochloride Salt]
